We go through 3 molecules from US11066379B2 (THE TEXAS A&M UNIVERSITY SYSTEM, priority 2018, dated 2021).

In general, IC50 refers to the midpoint of a concentration-inhibition curve. As a reminder, the Kd is the equilibrium constant for the complex coming apart. The low end stands for tighter binding, the high end for weaker binding.

Series [1] is described as follows: Viability of human T lymphocytes (MTT assay, 48 h). Type of series: cell-based. The conditions noted are these: human; 1 μM, 48 hours; read-out: decrease in cell viability. The text has this:
(§1) The MTT (3-[4,5-dimethylthiazol-2-yl]-2,5-diphenyltetrazoliumbromide) assay was used to determine the cytotoxicity of gracilin derivatives in T lymphocytes (Burton, J. D. Methods Mol. Med., 2005, 110, 69-78) and SH-SY5Y cells and the protective effect of these compounds against H2O2 insult in neuroblastoma cells as previously described (Leiros, M., Alonso, E., Sanchez, J. A., Rateb, M. E., Ebel, R., Houssen, W. E., Jaspars, M., Alfonso, A. and Botana, L. M. ACS Chem. Neurosci., 2014, S, 71-80). Human T lymphocytes were cultured in 24 well plates at the concentration of 2.5×10^6 cells/mL and exposed to different compound concentrations (0.01, 0.1, 1 and 10 μM) added to the culture medium. Human T cells were maintained in the presence of the pure compound at 37° C. in humidified 5% CO2/95% air atmosphere for 48 h.
(§2) Saponin was used as cellular death control and its absorbance was subtracted from the other data. After the incubation period with compounds, assay was performed. First cells were centrifuged (1500 rpm, 5 min, 4° C.). The pellets were resuspended in saline solution with MTT (250 μg/mL) and then incubated at 37° C. during 30 min. After washing off excess MTT twice with saline solution, cells were disaggregated with H2O and sonicated for 1 min and the absorbance of the colored formazan salt was measured at 595 nm in a spectrophotometer plate reader. All experiments were performed three times.
(Tetrazolium dyes change colour on reduction, which living cells bring about.)

The test system of series [2] is human T lymphocytes. The experiment in a line: Viability of human T lymphocytes (MTT assay, 48 h). In kind it is cell-based. The conditions noted are these: in words.
From the text: as §1, §2

Series [3] deals with SH-SY5Y cells. The experiment in a line: Cellular toxicity in SH-SY5Y cells (MTT, 24 h). The note with it: 24 h; for cytotoxicity toward SH-SY5Y cells: 10-0.01 μM, in words. In kind it is cell-based.
From the text: as §1
(§3) SH-SY5Y cells were seeded in 96-well plates at a density of 2.5×10^5 cells/mL and allowed to adhere for 24 h. At first, cells were treated only with compounds at concentrations ranging from 10-0.01 μM for 24 h to determine their possible cytotoxic effects. Experiments were carried out three times. For neuroprotective experiments, cells were treated with compounds at non-toxic concentrations (1 μM→1 nM) and 150 μM H2O2 for 6 h. Briefly, cells were washed three times with saline solution and 200 μL of MTT (500 μg/mL) dissolved in saline buffer were added to each well. Following 1 h of incubation at 37° C., the cells were disaggregated with sodium dodecyl sulphate at 5%.
Absorbance of formazan crystals was measured at 595 nm with a spectrophotometer plate reader. Saponin was used as death control and its absorbance was subtracted from the other data. All experiments were performed four times.

For series [4], the target named is T1, active human CypA protein (Homo sapiens, UniProt P62937).
T1 construct: Active human CypA full-length protein was from Abcam; purchased Abcam
The experiment in a line: Binding to immobilized CypA by surface plasmon resonance (SPR). The conditions noted are these: SPR, immobilized CypA. As to the method:
Sensor surface activation and ligand immobilization were performed by using HBS-EP as running buffer at a flow rate of 5 μL/min and 25° C. CM5 sensor chips were used as surface where Cyp A or D was immobilized as ligand. The CM5 chip is a glass slide coated with a thin layer of gold with a matrix of carboxymethylated dextran covalently attached. The CM5 chip was activated using an amine coupling kit. […] After activation, the ligand, 100 μg/mL of active human CypA protein dissolved in sodium acetate 10 mM at pH 4.5 was added to be immobilized over a CM5 sensor chip. Finally ethanolamine-HCl was injected to deactivate the remaining active esters and to avoid non-specific binding. […] Once analytes were tested and interaction was observed, individual binding curves were analyzed by determining the kinetic constants of analytes-CypA binding, namely, the observed rate constant (Kobs), the association rate constant (Kass), the dissociation rate constant (Kdiss), and the kinetic equilibrium dissociation constant (KD). At equilibrium, by definition, […]. The pseudo-first order association rate constants Kobs (s^-1) were determined for each compound concentration by using the 1:1 Langmuir association model of BiaEvaluation software (BiaCore, Uppsala, Sweden). Then a representation of Kobs against the corresponding concentration of each compound was done. […] From the equation of these representations, Kass, M^-1 s^-1, gradient of the plot, and […]^-1, intercept of the plot was obtained. Within these two values, the kinetic equilibrium dissociation constant KD for each analyte-CypA binding was obtained. The duration of the sample injection was 2 min at 10 μL/min flow rate. Next, dissociation of bound molecules in HBS-EP buffer flow was studied. The bound drugs were removed from the chip surface before the next injection by adding 1 M Glycine-HCl at pH 2.5 for 1 min. The association phase was used to quantify the compound-CypA or D interactions. All experiments were performed four times.
Background: SPR reads the build-up and loss of mass on a sensor chip optically.

The test system of series [5] is Interleukin-2 (IL-2) production in human T lymphocytes. Briefly: Interleukin-2 release in Con A-stimulated human T lymphocytes (ELISA). Type of series: cell-based. The note with it: 2 h pre-treatment at non-toxic concentration, Con A 50 μg/mL 48 h. As for the experimental part: Then, cells were stimulated with Concanavalin A (Con A) at 50 μg/mL for 48 h to induce IL-2 release. The amount of IL-2 released to the culture medium was evaluated using Human IL-2 ELISA kit. Experiments were carried out four times.
For orientation: An ELISA detects its analyte on a solid surface through an enzyme-linked reagent.

Series [6] relates to SH-SY5Y cells. The experiment in a line: Glutathione assay (Thiol Tracker Violet) after H2O2. The conditions noted are these: 150 μM H2O2 co-treatment 6 h, two or more concentrations. Type of series: cell-based, human. As for the experimental part: Glutathione (GSH) levels were determined using Thiol Tracker Violet dye, which reacts with reduced thiols in cells. Reduced glutathione represents the majority of intracellular free thiols, so this probe can be used to estimate its levels in cells. Measurements were performed following manufacturer's protocol. Cells were seeded in 96-well plates at 2.5×10^5 cells/mL for 24 h and treated with compounds at various concentrations (1 μM→1 nM) and 150 μM H2O2. After 6 h, SH-SY5Y cells were washed twice with PBS and loaded with 100 μL of prewarmed Thiol Tracker Violet dye (10 μM) for 30 min at 37° C. The fluorescence was measured at 404 nm excitation and emission at 526 nm. All experiments were performed four times.

In series [7] the test system is SHSY5Y cells. The experiment in a line: Neuroprotective effects summarised over all five assays (viability, TMRM, ROS, GSH, mPTP). The note with it: 0.001, 0.01 or 0.1 μM; H2O2 challenge. In kind it is cell-based, human. As to the method:
As described previously, neuroprotective agents can mediate their effects through inhibition of CypD, an isoform of CypA. […] All assays were performed at the indicated concentrations (0.001, 0.01, or 0.1 μM) based on initial cytotoxicity determined with SHSY5Y cells (Table 1).

For series [8], the target named is CypD (Homo sapiens, UniProt P30405). Briefly: CypD enzyme inhibition assay (PPIase activity). Type of series: biochemical. The note with it: CypD 1 nM. As to the method: The inhibition of the peptidyl-prolyl cis-trans isomerase (PPIase) activity of compounds was determined by following the rate of hydrolysis of N-succinyl-Ala-Ala-Pro-Phe-pnitroanilide by chymotrypsin. CsA was used as positive control. The assay was performed as previously described (Yan, W., Qing, J., Mei, H., Nong, J., Huang, J., Zhu, J., Jiang, H., Liu, L., Zhang, L. and Li, J. Bioorg. Med. Chem. Lett., 2015, 25, 5682-5686) with small modifications. The assay buffer (20 mM Tris-HCl, 50 mM NaCl, pH 7.8), CypD (1 nM) and the compounds at concentrations ranging from 0.001 to 10 μM were pre-cooled at 4° C. for 1 h. After that time, chymotrypsin at 0.4 mg/mL in 1 mM HCl was added to each well. The reaction was initiated by the addition of the peptide (0.1 mg/mL in 500 mM LiCl in THF). The absorbance at 380 nm was monitored every 30 sec for 5 min with a spectrophotometer plate reader. The blank rates of hydrolysis (in absence of CypD) were subtracted from the rates in the presence of the enzyme. The half-maximal inhibitory concentration (IC50) was calculated by fitting the data with a log(inhibitor) vs. response model of GraphPad Prism 5.0 software. All experiments were performed four times.

In series [9] the test system is mitochondrial membrane permeability transition pore (mPTP) in SH-SY5Y cells. Briefly: Mitochondrial membrane permeability transition pore (mPTP) measurement, TBHP-induced opening. Type of series: cell-based, human. The note with it: 1 mM TBHP. As to the method: The blockage of mPTP by compounds was determined with the MitoProbe Transition Assay Kit following manufacturer's instructions. Briefly, SH-SY5Y human neuroblastoma cells were re-suspended in pre-warmed PBS/Ca^+2 buffer at a final concentration of 1×10^6 cells/mL. Cells were loaded with 0.01 μM Calcein-AM and incubated at 37° C. for 15 min. Then, 0.4 mM CoCl2 and compounds at selected concentrations were added and incubated for 15 min at 37° C. […] After this incubation, cells were centrifuged and re-suspended in 100 μL of PBS. Just before analyzing, 1 mM tert-butyl hydroperoxide (TBHP) was added to the samples to induce pore opening. Fluorescence intensity was measured at 488 nm excitation and 517 nm emission wavelengths by flow cytometry using the ImageStreamMKII (Amnis Corporation, Merck-Millipore) and […] software. The fluorescence of 10,000 events was analyzed with IDEASR Application vs 6.0 (Amnis Corporation, Merck-Millipore). Experiments were carried out four times.

Series [10] relates to SH-SY5Y cells. Briefly: Neuroprotection against H2O2 toxicity, cell viability by MTT. Type of series: cell-based, human. The conditions noted are these: 150 μM H2O2 co-treatment 6 h; 0.01, 0.1 and 1 μM. As to the method:
as §3, with “5%. Absorbance of formazan crystals was measured at 595 nm with a spectrophotometer plate reader. Saponin was used as death control and its absorbance was subtracted from the other data. All experiments were performed four times.” for “5%.”

The test system of series [11] is SH-SY5Y cells. Briefly: Intracellular ROS levels (carboxy-H2DCFDA) after H2O2. Type of series: cell-based, human. The conditions noted are these: 150 μM H2O2 co-treatment 6 h. As for the experimental part:
Intracellular levels of reactive oxygen species (ROS) were determined with carboxy-H2DCFDA (5-(and-6)-carboxy-2′,7′-dichlorodihydrofluorescein diacetate). This dye diffuses through the cellular membrane and is converted by cellular esterases to carboxy-H2DCFH (non-fluorescent). When carboxy-H2DCFH is oxidized by ROS, it becomes fluorescent (Halliwell, B. and Whiteman, M. Br. J. Pharmacol., 2004, 142, 231-255). Cells were seeded at a density of 2.5×10^5 cells/mL in 96-well plates and allowed to attach for 24 h. Following treatment with compounds at various concentrations (1 μM→1 nM) and 150 μM H2O2 for 6 h, SH-SY5Y cells were washed twice with serum-free culture medium. Then, carboxy-H2DCFDA 20 μM dissolved in serum-free culture medium was added to each well and the cells were incubated for 1 h at 37° C. After this incubation, the medium with the fluorescent dye was replaced with PBS and the plate was incubated for 30 min at 37° C. Fluorescence was read at 527 nm, with an excitation wavelength of 495 nm. All experiments were performed four times.

Series [12] has as its target T2, CypA (Homo sapiens, UniProt P62937).
T2 construct: Active human CypA full-length protein was from Abcam; purchased Abcam
Briefly: CypA PPIase activity inhibition. In kind it is biochemical. The conditions noted are these: up to 10 μM, in words.

Series [13] deals with EGF-R (Homo sapiens, UniProt P00533). The note with it: 100 μM; cited from earlier work.

“And” between values parts separate entries of the source, which are not always exact repeats. Equal entries are not always repeated. “Also recorded” adds a separate entry of the source.

CypD, sequence (P30405 30-207): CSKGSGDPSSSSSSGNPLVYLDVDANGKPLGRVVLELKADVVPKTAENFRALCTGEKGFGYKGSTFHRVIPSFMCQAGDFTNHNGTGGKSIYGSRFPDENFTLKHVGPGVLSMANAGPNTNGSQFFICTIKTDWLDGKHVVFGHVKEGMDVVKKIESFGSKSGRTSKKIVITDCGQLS
T1 sequence (P62937 whole entry): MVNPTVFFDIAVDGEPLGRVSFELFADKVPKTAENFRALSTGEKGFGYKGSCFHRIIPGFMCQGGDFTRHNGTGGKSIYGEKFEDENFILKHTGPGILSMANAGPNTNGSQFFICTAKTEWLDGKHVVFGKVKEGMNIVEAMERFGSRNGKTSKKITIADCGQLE
EGF-R, sequence (P00533 25-1210, species assumed): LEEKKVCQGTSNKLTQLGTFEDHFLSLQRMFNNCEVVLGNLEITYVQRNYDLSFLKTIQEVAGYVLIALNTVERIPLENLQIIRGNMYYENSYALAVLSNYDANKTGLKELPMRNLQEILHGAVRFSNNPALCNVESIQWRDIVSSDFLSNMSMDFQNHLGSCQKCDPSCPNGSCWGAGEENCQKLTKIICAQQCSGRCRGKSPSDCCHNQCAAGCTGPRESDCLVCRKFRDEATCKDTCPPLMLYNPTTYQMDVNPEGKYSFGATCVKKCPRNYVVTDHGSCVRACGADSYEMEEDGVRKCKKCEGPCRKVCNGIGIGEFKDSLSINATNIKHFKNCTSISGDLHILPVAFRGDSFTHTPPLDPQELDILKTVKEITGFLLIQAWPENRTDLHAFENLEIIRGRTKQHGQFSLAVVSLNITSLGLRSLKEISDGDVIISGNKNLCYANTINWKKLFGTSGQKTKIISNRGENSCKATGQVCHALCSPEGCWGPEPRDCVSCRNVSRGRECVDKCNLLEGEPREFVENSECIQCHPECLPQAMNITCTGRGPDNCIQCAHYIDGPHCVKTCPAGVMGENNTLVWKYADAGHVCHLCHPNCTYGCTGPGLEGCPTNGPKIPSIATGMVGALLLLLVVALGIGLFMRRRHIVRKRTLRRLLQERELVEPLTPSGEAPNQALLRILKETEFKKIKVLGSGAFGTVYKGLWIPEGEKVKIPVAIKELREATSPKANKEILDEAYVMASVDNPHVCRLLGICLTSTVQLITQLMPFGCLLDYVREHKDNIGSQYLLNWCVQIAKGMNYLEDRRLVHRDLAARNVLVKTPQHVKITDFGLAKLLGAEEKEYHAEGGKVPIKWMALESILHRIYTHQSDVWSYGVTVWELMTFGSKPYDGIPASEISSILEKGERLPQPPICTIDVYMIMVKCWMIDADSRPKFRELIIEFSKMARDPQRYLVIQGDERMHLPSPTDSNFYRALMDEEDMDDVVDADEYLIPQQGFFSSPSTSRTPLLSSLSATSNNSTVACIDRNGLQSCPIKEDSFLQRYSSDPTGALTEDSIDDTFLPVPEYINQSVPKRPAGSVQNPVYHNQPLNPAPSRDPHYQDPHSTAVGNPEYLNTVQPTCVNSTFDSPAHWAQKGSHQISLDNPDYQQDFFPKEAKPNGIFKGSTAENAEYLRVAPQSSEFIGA
T2 sequence (P62937 whole entry): as the sequence (P62937 whole entry) above

On to `CC(=O)O[C@H]1OC[C@@H]2C=C([C@]3(C)CCCC(C)(C)C3)CC[C@H]12` [Compound 29b, (1R,3aR,7aS)-5-(1,3,3-trimethylcyclohexyl)-1,3,3a,6,7,7a-hexahydroisobenzofuran-1-yl acetate], for which the cytotoxicity at 48 h, 1 μM in series [1] was 15 to 25%. The “impact on T-cell viability” value in [2] is recorded as “relatively non-toxic”. Besides, the “cytotoxicity toward SH-SY5Y cells” value in series [3] is “led to cell death at the higher concentrations tested”. In addition, the IC50 in series [3] (Homo sapiens, SH-SY5Y, read-out: IC50 (cellular toxicity)) was found to be 7900 nM. The Kd in series [4] was ~3000 nM and 2800 to 6800 nM. For the same molecule, the “Inhibition of IL-2 production” value in series [5] is roughly 0%.

As for `CC(=O)OC[C@@H]1CCC(C2(C)CCCCC2)=C[C@@H]1COC(C)=O` [Compound 27b, ((3S,4R)-1′-methyl-[1,1′-bi(cyclohexan)]-1-ene-3,4-diyl)bis(methylene) diacetate], the GSH levels entry in series [6] was “recovered GSH levels”. In series [7], the “neuroprotective / antioxidant effects based on all five assays” value is “displayed significant neuroprotective effects; also recorded: significant antioxidant activity in all five assays”. Moreover, the “cytotoxicity toward SH-SY5Y cells” value in series [3] is “led to cell death at the higher concentrations tested”. Also, the half-inhibitory concentration (IC50) in series [8] was 480 nM and < 500 nM. Also, the mPTP opening result in series [9] was “prevent TBHP-induced opening”. In series [10], the “protection of cell viability against H2O2 insult” value was “protected cells against H2O2 insult at almost all concentrations”. In addition, the ROS levels result in [11] was “diminishing ROS at two or three concentrations”. For the same molecule, the “CypA PPIase inhibitory activity” value in [12] is “inactive”.

Take `C/C=C1\C([C@@]2(C)CCCC(C)(C)C2)=CC[C@H]2[C@H](OC(C)=O)O[C@H](OC(C)=O)[C@@H]12` [gracilin A, reference compound]: the EGF-R inhibition in series [13] is recorded as 70%. Also, binding in series [4] was put at a Kd of 2530 ± 400 nM.
